Assay results: paper PMC4444576, “Prospective performance evaluation of selected common virtual screening tools. Case study: Cyclooxygenase (COX) 1 and 2” (European Journal of Medicinal Chemistry, 2015)
Like-named read-outs stand apart in the source and are kept apart here.

Experiments:
[1] = target: T1, ram seminal vesicle COX-1 (Ovis aries, UniProt P05979); test: COX-1 inhibition assay (PGE2 EIA); format: biochemical; conditions: average of at least two independent experiments, triplicates; read-out: IC50 COX-1
T1 construct: ram seminal vesicle COX-1 (1 U) (Sigma–Aldrich); purchased Sigma–Aldrich; host or cells: ram seminal vesicle (tissue of origin)
T1 sequence (P05979 25-600): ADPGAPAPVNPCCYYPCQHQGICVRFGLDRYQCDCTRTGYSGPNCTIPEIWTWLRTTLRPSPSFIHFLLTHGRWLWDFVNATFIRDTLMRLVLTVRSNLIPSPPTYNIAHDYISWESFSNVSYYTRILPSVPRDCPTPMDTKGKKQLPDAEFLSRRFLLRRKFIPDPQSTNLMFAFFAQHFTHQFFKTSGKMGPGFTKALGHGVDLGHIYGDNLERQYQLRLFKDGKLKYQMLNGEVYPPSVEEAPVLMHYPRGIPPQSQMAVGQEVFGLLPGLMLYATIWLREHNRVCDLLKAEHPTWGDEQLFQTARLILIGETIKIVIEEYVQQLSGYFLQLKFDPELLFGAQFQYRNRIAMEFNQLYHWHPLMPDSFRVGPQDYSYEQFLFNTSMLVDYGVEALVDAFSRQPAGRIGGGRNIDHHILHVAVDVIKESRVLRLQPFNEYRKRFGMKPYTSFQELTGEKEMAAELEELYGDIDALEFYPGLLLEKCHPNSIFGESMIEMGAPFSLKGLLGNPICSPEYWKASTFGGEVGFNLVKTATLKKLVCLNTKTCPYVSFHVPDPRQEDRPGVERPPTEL

human recombinant COX-2 = target: T2, human recombinant COX-2 (Homo sapiens, UniProt P35354); test: COX-2 inhibition assay (PGE2 EIA); format: biochemical; conditions: average of at least two independent experiments, triplicates; read-out: IC50 COX-2
T2 construct: purchased Sigma–Aldrich
T2 sequence (P35354 18-604): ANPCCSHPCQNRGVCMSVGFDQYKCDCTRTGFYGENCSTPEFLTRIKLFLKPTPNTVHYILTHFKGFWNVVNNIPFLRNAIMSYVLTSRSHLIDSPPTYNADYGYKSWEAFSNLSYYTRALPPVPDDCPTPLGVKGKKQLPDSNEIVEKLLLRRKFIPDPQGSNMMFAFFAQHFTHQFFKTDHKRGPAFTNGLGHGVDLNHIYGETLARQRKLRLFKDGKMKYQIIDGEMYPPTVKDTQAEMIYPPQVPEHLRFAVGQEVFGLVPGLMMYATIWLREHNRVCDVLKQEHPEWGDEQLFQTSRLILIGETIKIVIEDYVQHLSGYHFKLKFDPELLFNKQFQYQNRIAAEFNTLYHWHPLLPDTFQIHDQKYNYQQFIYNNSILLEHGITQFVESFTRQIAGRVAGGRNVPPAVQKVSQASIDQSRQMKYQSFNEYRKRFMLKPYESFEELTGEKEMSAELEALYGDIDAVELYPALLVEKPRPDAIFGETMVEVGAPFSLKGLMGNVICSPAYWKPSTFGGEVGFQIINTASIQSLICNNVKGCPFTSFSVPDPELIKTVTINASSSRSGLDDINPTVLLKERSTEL

COX [2] = test: Biological testing for COX-inhibiting activity, overall outcome on both isoforms; format: biochemical; conditions: for COX isoform selectivity: COX-1 versus COX-2; for Activity: biological testing of this study
U937 cells = tested on: U937 cells; set-up: method as in PMID 19958764; conditions: stimulated differentiated U937 cells; cited from earlier work
COX [3] = conditions: cited from earlier work
COX [4] = tested on: COX; set-up: method as in PMID 22053353; conditions: read-out: IC50, oxidation of endocannabinoids; cited from earlier work
mice and rats = tested on: mice and rats; set-up: method as in earlier work; conditions: ref 1 (Supporting Information), cited from earlier work

| IC50 [1] [µM] | IC50 (human recombinant COX-2) [µM] | Structure (SMILES) | COX isoform selectivity (COX [2]) | Activity (COX [2]) | PGE2-formation (U937 cells) | PGE2 formation from AA (COX [3]) | Activity (COX [3]; data from the literature) | IC50 (COX [4]) [µM] | anti-prostatic effects (mice and rats; mice and rats, compared to DES) | estrogenicity, lower compared to DES (mice and rats) | spermatogenesis or fertility (mice and rats; unlike DES) |
| --- | --- | --- | --- | --- | --- | --- | --- | --- | --- | --- | --- |
| 1.5 ± 2.1 | > 20 | COc1cc(/C=C2\CCC/C(=C\c3ccc(O)c(OC)c3)C2=O)ccc1O [Cyqualon (3), Cyqualon] | COX-1 selective | Active | did not prevent PGE2-formation | – | – | – | – | – | – |
| – | – | CC(C)Cc1ccc([C@@H](C)C(=O)O)cc1 [(R)-ibuprofen] | – | – | – | only inhibited at high concentrations | Active [60] | ~10 | – | – | – |
| 33 ± 7.3 | > 20 | CCC(c1ccc(O)c(F)c1)C(C)c1ccc(O)c(F)c1 (stereo not drawn) [Bifluranol (1), Bifluranol] | COX-1 selective | Active | – | – | – | – | comparable extent to diethylstilbestrol (DES) | approximately 8 fold | did not impair spermatogenesis or fertility |
